Five molecules from patent US11524966B1 (Valo Early Discovery, Inc., priority 2017, dated 2022) can be followed below.

The assay deals with T1, USP28 (His-tagged USP28-FL-mammalian) (Homo sapiens, UniProt Q96RU2).
T1 construct: Expression of USP28 (1-1077)-TEV-6*His (pTT5 vector); made in house; host or cells: Expi293f cells (pTT5 vector)
T1 sequence (Q96RU2 1-1077): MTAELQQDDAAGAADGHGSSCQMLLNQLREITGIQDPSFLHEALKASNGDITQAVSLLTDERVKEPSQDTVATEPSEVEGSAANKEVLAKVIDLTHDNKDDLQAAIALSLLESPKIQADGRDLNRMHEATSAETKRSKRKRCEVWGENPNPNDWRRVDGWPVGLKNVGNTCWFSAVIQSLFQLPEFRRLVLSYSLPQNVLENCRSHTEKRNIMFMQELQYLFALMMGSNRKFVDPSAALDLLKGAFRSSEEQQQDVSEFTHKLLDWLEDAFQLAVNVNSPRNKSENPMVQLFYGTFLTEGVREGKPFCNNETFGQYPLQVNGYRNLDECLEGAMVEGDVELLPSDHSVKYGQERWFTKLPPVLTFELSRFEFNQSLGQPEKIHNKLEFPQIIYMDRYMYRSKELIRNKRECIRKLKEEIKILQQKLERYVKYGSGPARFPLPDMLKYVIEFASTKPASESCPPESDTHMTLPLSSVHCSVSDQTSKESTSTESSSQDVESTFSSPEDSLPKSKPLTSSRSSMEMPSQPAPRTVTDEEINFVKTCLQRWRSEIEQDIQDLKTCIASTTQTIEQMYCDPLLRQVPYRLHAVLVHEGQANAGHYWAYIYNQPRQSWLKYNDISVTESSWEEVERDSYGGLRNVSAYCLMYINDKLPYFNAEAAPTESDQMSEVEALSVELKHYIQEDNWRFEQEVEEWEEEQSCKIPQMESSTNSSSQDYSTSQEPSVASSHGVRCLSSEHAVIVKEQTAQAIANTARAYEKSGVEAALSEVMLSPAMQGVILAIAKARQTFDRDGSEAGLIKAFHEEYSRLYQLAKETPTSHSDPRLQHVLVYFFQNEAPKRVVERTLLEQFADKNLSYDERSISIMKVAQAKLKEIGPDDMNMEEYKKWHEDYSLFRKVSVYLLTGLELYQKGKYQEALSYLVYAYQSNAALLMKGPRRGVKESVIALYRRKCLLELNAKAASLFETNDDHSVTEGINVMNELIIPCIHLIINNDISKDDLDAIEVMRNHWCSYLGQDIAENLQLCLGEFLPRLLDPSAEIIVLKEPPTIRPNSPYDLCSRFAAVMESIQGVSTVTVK
The assay is described as follows: Ubiquitin-Rhodamine 110 Assay for USP28 Activity, Example A-1(a). The following applies: Ubiquitin-Rhodamine 110 assay, Example A-1(a); read-out: USP28 A-1(a) IC50 range. The class given is biochemical. The essentials: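 Full-length His-tagged USP28 (1-1077, Expi293F-expressed; […]) was preincubated 30 min with compound (25 μM–1.3 nM, 10-point 3-fold) in 20 mM Tris-HCl pH 8.0, 3 mM BME, 0.03% BGG, 0.01% Triton X-100. Ub-Rh110 (25 nM) was then added for 45 min at room temperature, stopped with citric acid, and read by fluorescence (485/535 nm).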
As to `Cc1cnc2c(N)c(C(=O)N[C@@H]3CCc4cc(N5CC6CNCC(C5)O6)ccc4C3)sc2n1` [Example 450, N-((2R)-6-(9-oxa-3,7-diazabicyclo[3.3.1]nonan-3-yl)-1,2,3,4-tetrahydronaphthalen-2-yl)-7-amino-3-methylthieno[2,3-b]pyrazine-6-carboxamide], the IC50 (as a rule, the concentration needed to halve the response being measured) was in the range of 0.2 to 2 µM.

As to `Cc1ccc2c(N)c(C(=O)N[C@H]3COc4cc(N5CC6CNC[C@](C)(C5)O6)cc(F)c4C3)sc2n1` [Example 413, 3-amino-N-[(3R)-5-fluoro-7-[(1R)-1-methyl-9-oxa-3,7-diazabicyclo[3.3.1]nonan-3-yl]-3,4-dihydro-2H-1-benzopyran-3-yl]-6-methylthieno[2,3-b]pyridine-2-carboxamide], the IC50 fell in the range of 0.001 to 0.05 µM.

For `Cc1ccc2c(N)c(C(=O)N[C@H]3COc4cc(N5CCC[C@](C)(O)C5)ccc4C3)sc2n1` [Example 7-2], the IC50 fell in the range of 0.001 to 0.05 µM.

For `Cc1ccc2c(N)c(C(=O)N[C@H]3COc4cc(N5CCC(C(=O)O)CC5)ccc4C3)sc2n1` [Example 6-1, (R)-1-(3-(3-Amino-6-methylthieno[2,3-b]pyridine-2-carboxamido)chroman-7-yl)piperidine-4-carboxylic Acid], the concentration for half-maximal inhibition (IC50) was 0.2 to 2 µM.

Consider `CO[C@H]1CN(c2cc3c(c(F)c2F)C[C@@H](NC(=O)c2sc4nc(C)ccc4c2N)CO3)C[C@@H]1N` [Example 416, 3-amino-N-[(3R)-7-[(3S,4S)-3-amino-4-methoxpyrrolidin-1-yl]-5,6-difluoro-3,4-dihydro-2H-1-benzopyran-3-yl]-6-methylthieno[2,3-b]pyridine-2-carboxamide], for which the IC50 lay within 0.001 to 0.05 µM.
